Counter-ions that a name gives are not always drawn.
Assays:
Assay in all cases: MIC, broth dilution method in microtitre
E. faecalis ATCC 29212 = format: cell-based; conditions: Enterococcus faecalis, ATCC29212
Experimental: (§1) Using a standard broth dilution method in microtitre, compounds were tested for antibacterial activity. The compounds in the above examples gave minimum inhibitory concentrations (MICs) less than 1 microgram per millilitre against erythromycin-sensitive and erythromycin-resistant strains of Streptococcus pneumoniae and Streptococcus pyogenes.
(§2) In addiffon, the MIC (μg/mL) of test compounds against various organisms was determined including:
(§3) S. aureus Smith ATCC 13709, S. pneumonlae SP030, S. pyogenes 3565, E. faecalis ATCC 29212, H. influenzae ATCC 49247, M. catarrhalis ATCC 23246.

[1] = system: S. aureus Smith ATCC 13709; format: cell-based; conditions: Staphylococcus aureus, ATCC13709
Experimental: as §1, §2, §3

S. pneumoniae SP030 = format: cell-based; conditions: Streptococcus pneumoniae
Experimental: as §1, §2, §3

S. pyogenes 3565 = format: cell-based; conditions: Streptococcus pyogenes
Experimental: as §1, §2, §3

[2] = system: erythromycin-resistant strains of Streptococcus pneumoniae; format: cell-based
Experimental: as §1

[3] = system: erythromycin-resistant strains of Streptococcus pyogenes; format: cell-based
Experimental: as §1

H. influenzae ATCC 49247 = format: cell-based, Haemophilus influenzae
Experimental: as §1, §2, §3

[4] = system: M. catarrhalis ATCC 23246; format: cell-based, Moraxella catarrhalis
Experimental: as §1, §2, §3

## CC[C@H]1OC(=O)[C@H](C)[C@@H](O[C@H]2C[C@@](C)(OC)[C@@H](OC(=O)NCCNCCOc3ccc4c(c3)c(=O)c(C(=O)O)cn4CC)[C@H](C)O2)[C@H](C)[C@@H](O[C@@H]2O[C@H](C)CC(N(C)C)[C@H]2O)[C@](C)(OC)C[C@@H](C)C(=O)[C@H](C)[C@@H](O)[C@]1(C)O (stereo partly drawn) [Example 3, 4″-O-{2-[2-(3-Carboxy-1-ethyl-4-oxo-1,4-dihydro-quinolin-6-yloxy)-ethylamino]-ethylcarbamoyl}-6-O-methyl-erythromycin A monoformate salt]
E. faecalis ATCC 29212
  MIC: ≤ 1 mg/L
[1]
  MIC: ≤ 1 mg/L
S. pneumoniae SP030
  MIC: ≤ 1 mg/L
S. pyogenes 3565
  MIC: ≤ 1 mg/L

## CC[C@H]1OC(=O)[C@H](C)[C@@H](O[C@H]2C[C@@](C)(OC)[C@@H](OC(=O)NCCCOCCOc3ccc4c(c3)c(=O)c(C(=O)O)cn4C3CC3)[C@H](C)O2)[C@H](C)[C@@H](O[C@@H]2O[C@H](C)C[C@H](N(C)C)[C@H]2O)[C@](C)(O)C[C@@H](C)CN(C)[C@H](C)[C@@H](O)[C@]1(C)O [Example 2]
E. faecalis ATCC 29212
  MIC: ≤ 1 mg/L
[1]
  MIC: ≤ 1 mg/L
S. pneumoniae SP030
  MIC: ≤ 1 mg/L
S. pyogenes 3565
  MIC: ≤ 1 mg/L
[2]
  MIC: ≤ 0.25 mg/L
[3]
  MIC: ≤ 0.25 mg/L

## 4″-O-3-[2-(3-Carboxy-7-chloro-1-cyclopropyl-4-oxo-1,4-dihydro-quinolin-6-yloxy)-ethoxy]-propylcarbamoyl}-azithromycin (A) and 4″-O-{3-[2-(3-Carboxy-1-cyclopropyl-4-oxo-1,4-dihydro-quinolin-6-yloxy)-ethoxy]-propylcarbamoyl)-azithromycin (B) [Example 1]
H. influenzae ATCC 49247
  MIC: ≤ 2 mg/L
[4]
  MIC: ≤ 2 mg/L

— patent US20070141276A1, “Novel 14 and 15 membered ring compounds” (priority 2003, published 2007)
